# Publication PMC11285371 (Journal of medicinal chemistry, 2023)
# Where “and” joins values, the source holds several entries; their conditions need not be identical. Equal values may be shown once. Entries after “also recorded” stand apart in the source; their conditions may differ.
# Tests used:
# [1] = system: drug-tolerant Mtb persisters; type: cell-based, Mycobacterium tuberculosis
# 15 mammalian cell lines = conditions: cited from earlier work
# [2] = system: Cas1 glioblastoma cell line; conditions: cited from earlier work
# [3] = cited from earlier work
# TGFBR1 [4] = target: T1, TGFBR1 (Homo sapiens, UniProt P36897); assay: TGFBR1 DiscoverX KINOMEscan binding assay
# T1 sequence (P36897 34-503): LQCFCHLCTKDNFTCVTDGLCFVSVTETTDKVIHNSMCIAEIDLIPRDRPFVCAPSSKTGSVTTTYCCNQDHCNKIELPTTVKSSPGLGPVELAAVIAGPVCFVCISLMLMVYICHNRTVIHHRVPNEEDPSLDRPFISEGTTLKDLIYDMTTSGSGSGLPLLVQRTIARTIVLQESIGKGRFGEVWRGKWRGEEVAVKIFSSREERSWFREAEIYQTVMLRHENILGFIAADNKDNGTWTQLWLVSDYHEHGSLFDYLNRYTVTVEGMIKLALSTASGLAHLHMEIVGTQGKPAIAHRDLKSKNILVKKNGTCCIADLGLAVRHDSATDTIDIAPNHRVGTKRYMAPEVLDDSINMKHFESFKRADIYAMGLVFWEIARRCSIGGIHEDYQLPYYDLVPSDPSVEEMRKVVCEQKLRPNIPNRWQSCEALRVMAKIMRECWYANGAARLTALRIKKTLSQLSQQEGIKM
# [5] = 0.5 h
# Mtb H37Rv::luxCDAB = type: cell-based, Mycobacterium tuberculosis
# in vivo = conditions: CD1, mouse, po, 10 mg/kg, T1/2
# 192 human kinases = conditions: 10 μM, K192 NanoBRET panel
# TGFBR1 [6] = target: T1, TGFBR1; type: biochemical
# [7] = system: Mtb H37Rv strain expressing GFP; assay: microbe, parasite or virus in culture; type: cell-based; conditions: Mycobacterium tuberculosis
SMILES,metabolic stability in mouse liver microsomes (in words) [5],activity in the Mtb assay (in words) (Mtb H37Rv::luxCDAB),further results
Cc1cccc(-c2nc(Nc3ccncc3)c3ccccc3n2)n1 [AQA],,,"killing of persisters (cfu, in words) [1]: further reduction of viable bacteria; also recorded: full activity against persisters; toxicity against mammalian cell lines (in words) (15 mammalian cell lines): minimal toxicity; toxicity against Cas1 glioblastoma cell line (in words) [2]: moderate toxicity; acute toxicity (in words) ([3]; 5 mg/kg p.o. in rats): no acute toxicity; bioavailability (in words) ([3]; 5 mg/kg p.o. in rats): poor; oral bioavailability (in words) ([3]; rats): modest oral bioavailability"
"CC[C@@H](CO)NCCN[C@@H](CC)CO [EMB, ethambutol]",,,"killing of persisters (cfu, in words) [1]: did not increase the level of killing by RIF and INH further"
Cc1cccc(-c2nc(Nc3ccc4nc(C)sc4c3)c3ccccc3n2)n1 [compound 7],very low metabolic stability,,TGFBR1 binding activity (in words) (TGFBR1 [4]): lost activity against TGFBR1
Cc1cccc(-c2nc(Nc3ccc4c(c3)ncn4C)c3ccccc3n2)n1 [compound 10],,,"antibacterial activity against nonreplicating Mtb (in words, relative to AQA) (Mtb H37Rv::luxCDAB): reduced bactericidal activity"
Cc1cccc(-c2nc(Nc3ccc4[nH]ncc4c3)c3ccccc3n2)n1 [compound 11],very low metabolic stability,,
Cc1cccc(-c2nc(Nc3ccc4c(cnn4C)c3)c3ccccc3n2)n1 [compound 12],very low metabolic stability,,
Cc1cccc(-c2nc(Nc3ccc4nn[nH]c4c3)c3ccccc3n2)n1 [compound 14],,,"antibacterial activity against nonreplicating Mtb (in words, relative to AQA) (Mtb H37Rv::luxCDAB): reduced bactericidal activity"
Cc1cccc(-c2nc(Nc3ccc4nn(C)nc4c3)c3ccccc3n2)n1 [compound 16],,,half-life (in vivo): > 3 h
Cc1cccc(-c2nc(Nc3ccc4nnn(C)c4c3)c3ccccc3n2)n1 [compound 17],very low metabolic stability,,
Cc1cccc(-c2nc(Nc3ccc4ccsc4c3)c3ccccc3n2)n1 [compound 22],very low metabolic stability,,
Clc1cccc(-c2nc(Nc3ccncc3)c3ccccc3n2)n1 [compound 25],comparable,retained potent antibacterial activity; also recorded: matched the activity of AQA in the Mtb assay,
Fc1cccc(-c2nc(Nc3ccncc3)c3ccccc3n2)n1 [compound 26],,reduced activity,
FC(F)(F)c1cccc(-c2nc(Nc3ccncc3)c3ccccc3n2)n1 [compound 27],,reduced activity,
COc1cccc(-c2nc(Nc3ccncc3)c3ccccc3n2)n1 [compound 28],,greatly reduced activity,
c1ccc(-c2nc(Nc3ccncc3)c3ccccc3n2)nc1 [compound 29],comparable,reduced activity,
c1cncc(-c2nc(Nc3ccncc3)c3ccccc3n2)c1 [compound 30],,inactive,
c1ccc2c(Nc3ccncc3)nc(-c3cnccn3)nc2c1 [compound 31],,greatly reduced Mtb activity,
COc1cncc(-c2nc(Nc3ccncc3)c3ccccc3n2)n1 [compound 32],,greatly reduced Mtb activity,
c1cnc(-c2nc(Nc3ccncc3)c3ccccc3n2)nc1 [compound 33],,greatly reduced Mtb activity,
Cc1csc(-c2nc(Nc3ccncc3)c3ccccc3n2)n1 [compound 39],,lost activity against Mtb,
COc1ccc2nc(-c3cccc(C)n3)nc(Nc3ccncc3)c2c1 [compound 40],improved metabolic stability,retained both potent bactericidal activity and TGFBR1 enzyme inhibition at 1 and 10 μM; also recorded: matched the activity of AQA in the Mtb assay,
Cc1cccc(-c2nc(Nc3ccncc3)c3cc(O)ccc3n2)n1 [compound 41],improved metabolic stability,less active,
COc1ccc2c(Nc3ccncc3)nc(-c3cccc(C)n3)nc2c1 [compound 42],,less active,
Cc1cccc(-c2nc(Nc3ccncc3)c3ccn(C)c3n2)n1 [compound 43],,retained potent Mtb activity; also recorded: matched the activity of AQA in the Mtb assay; also recorded: low-micromolar activity against nonreplicating Mtb,additional human kinases on which the compound was active (192 human kinases): 7/192
Cc1cccc(-c2nc(C)cc(Nc3ccncc3)n2)n1 [compound 44],,retained partial Mtb and TGFBR1 activity,TGFBR1 enzyme inhibition (in words) (TGFBR1 [6]): retained partial Mtb and TGFBR1 activity
Cc1cccc(-c2cc3ccccc3c(Nc3ccncc3)n2)n1 [compound 45],,weaker activity,
Cc1cccc(-c2cc(Nc3ccncc3)c3ccccc3n2)n1 [compound 46],,weaker activity,
NNC(=O)c1ccncc1 [isoniazid],,,MIC [7]: 3.6 µM and 0.5 µg/mL
